According to ChEMBL document CHEMBL3763028, “Anionic fluoroquinolones as antibacterials against biofilm-producing Pseudomonas aeruginosa” (2016):
≈ marks a conversion by molar mass, not a printed value.

Columns and labels:
Type in all cases: functional
Pseudomonas aeruginosa [1] = assay: Bactericidal activity against Pseudomonas aeruginosa PAO1 in Luria-Bertani broth by microdilution method
Pseudomonas aeruginosa [2] = assay: Antipseudomonal activity against Pseudomonas aeruginosa PAO1 in Pseudomonas isolation agar assessed as bacterial growth inhibition at 10 uM by disk diffusion assay; details: read-out: DIZ
Pseudomonas aeruginosa [3] = assay: Antipseudomonal activity against Pseudomonas aeruginosa PAO1 in Luria-Bertani agar assessed as bacterial growth inhibition at 10 uM by disk diffusion assay; details: read-out: DIZ
Pseudomonas aeruginosa [4] = assay: Antipseudomonal activity against Pseudomonas aeruginosa PAO581 in Luria-Bertani agar assessed as bacterial growth inhibition at 10 uM by disk diffusion assay; details: read-out: DIZ
Pseudomonas aeruginosa [5] = assay: Antipseudomonal activity against Pseudomonas aeruginosa PAO581 in Pseudomonas isolation agar assessed as bacterial growth inhibition at 10 uM by disk diffusion assay; details: read-out: DIZ
Pseudomonas aeruginosa [6] = assay: Antipseudomonal activity against Pseudomonas aeruginosa PAO581 in Luria-Bertani broth by microdilution method
Pseudomonas aeruginosa [7] = assay: Antipseudomonal activity against Pseudomonas aeruginosa PAO1 in Luria-Bertani broth by microdilution method
Pseudomonas aeruginosa [8] = assay: Bactericidal activity against Pseudomonas aeruginosa PAO581 in Luria-Bertani broth by microdilution method
Pseudomonas aeruginosa [9] = assay: Antipseudomonal activity against Pseudomonas aeruginosa PAO1 in Pseudomonas isolation agar assessed as reduction in inhibitory zone size at 10 uM by disk diffusion assay relative to Luria-Bertani agar; parameters: scale not given: the % may be the effect or the level left
Pseudomonas aeruginosa [10] = assay: Antipseudomonal activity against Pseudomonas aeruginosa PAO581 in Pseudomonas isolation agar assessed as reduction in inhibitory zone size at 10 uM by disk diffusion assay relative to Luria-Bertani agar; parameters: scale not given: the % may be the effect or the level left

MIC (Pseudomonas aeruginosa [6])	MIC (Pseudomonas aeruginosa [7])	SMILES	MBC (Pseudomonas aeruginosa [1])	zone of inhibition at 10 µM (Pseudomonas aeruginosa [2])	zone of inhibition at 10 µM (Pseudomonas aeruginosa [3])	zone of inhibition at 10 µM (Pseudomonas aeruginosa [4])	zone of inhibition at 10 µM (Pseudomonas aeruginosa [5])	MBC (Pseudomonas aeruginosa [8])	Activity (Pseudomonas aeruginosa [9])	Activity (Pseudomonas aeruginosa [10])
3.12 µM (≈ 1.12 µg/mL)	3.12 µM (≈ 1.12 µg/mL)	O=CN1CCN(c2cc3c(cc2F)c(=O)c(C(=O)O)cn3C2CC2)CC1	6.25 µM (≈ 2.25 µg/mL)	20 mm	18 mm	21 mm	9 mm	6.25 µM (≈ 2.25 µg/mL)		
		O=C(O)CCC(=O)N1CCN(c2cc3c(cc2F)c(=O)c(C(=O)O)cn3C2CC2)CC1		0 mm	0 mm	0 mm	0 mm			
		CCn1cc(C(=O)O)c(=O)c2cc(F)c(N3CCN(C(C)=O)C(C)C3)c(F)c21 (stereo unspecified)		0 mm	0 mm	0 mm	0 mm			
3.12 µM	3.12 µM	O=C([O-])c1ccccc1C(=O)N1CCN(c2cc3c(cc2F)c(=O)c(C(=O)[O-])cn3C2CC2)CC1.[K+].[K+]	6.25 µM	11 mm	23 mm	31 mm	13 mm	12.5 µM	53%	58%
		CCn1cc(C(=O)O)c(=O)c2cc(F)c(N3CCN(C)CC3)cc21		12 mm	18 mm	19 mm	14 mm			
		CC(=O)N1CCN(c2cc3c(cc2F)c(=O)c(C(=O)O)cn3C2CC2)CC1		0 mm	10 mm	0 mm	13 mm			
		COC(=O)CN1CCN(c2cc3c(cc2F)c(=O)c(C(=O)O)cn3C2CC2)CC1		0 mm	0 mm	0 mm	0 mm			
		O=C(O)c1cn(C2CC2)c2cc(N3CCN(Cc4ccccc4)CC3)c(F)cc2c1=O		0 mm	0 mm	13 mm	0 mm			
		CCCCCCN1CCN(c2cc3c(cc2F)c(=O)c(C(=O)O)cn3C2CC2)CC1		0 mm	0 mm	0 mm	0 mm			
		O=C(O)CN1CCN(c2cc3c(cc2F)c(=O)c(C(=O)O)cn3C2CC2)CC1		0 mm	0 mm	0 mm	0 mm			
0.78 µM (≈ 0.365 µg/mL)	3.12 µM (≈ 1.46 µg/mL)	NC[C@H]1O[C@H](O[C@H]2[C@H](O)[C@@H](O[C@H]3O[C@H](CO)[C@@H](O)[C@H](N)[C@H]3O)[C@H](N)C[C@@H]2N)[C@H](N)C[C@@H]1O	1.56 µM (≈ 0.729 µg/mL)	13 mm	18 mm	20 mm	17 mm	6.25 µM (≈ 2.92 µg/mL)		
		COc1c(N2CCNC(C)C2)c(F)cc2c(=O)c(C(=O)O)cn(C3CC3)c12 (stereo unspecified)		21 mm	29 mm	31 mm	23 mm			
		CCCCN1CCN(c2cc3c(cc2F)c(=O)c(C(=O)O)cn3C2CC2)CC1		0 mm	23 mm	13 mm	0 mm			
		C[C@H]1COc2c(C3(N)CC3)c(F)cc3c(=O)c(C(=O)O)cn1c23		17 mm	25 mm	30 mm	20 mm			
		COc1c(N2CCN(C(C)=O)C(C)C2)c(F)cc2c(=O)c(C(=O)O)cn(C3CC3)c12 (stereo unspecified)		0 mm	0 mm	0 mm	0 mm			
		CC1(C)S[C@@H]2[C@H](NC(=O)[C@H](C(=O)O)c3ccsc3)C(=O)N2[C@H]1C(=O)O		0 mm	0 mm	0 mm	0 mm			
		O=C(O)CCCC(=O)N1CCN(c2cc3c(cc2F)c(=O)c(C(=O)O)cn3C2CC2)CC1		0 mm	0 mm	0 mm	0 mm			
		CCn1cc(C(=O)O)c(=O)c2cc(F)c(N3CCNC(C)C3)c(F)c21 (stereo unspecified)		12 mm	23 mm	29 mm	15 mm			
		COc1c(N2C[C@@H]3CCCN[C@@H]3C2)c(F)cc2c(=O)c(C(=O)O)cn(C3CC3)c12		10 mm	24 mm	31 mm	14 mm			
		COC(=O)CCCN1CCN(c2cc3c(cc2F)c(=O)c(C(=O)O)cn3C2CC2)CC1		6 mm	16 mm	17 mm	9 mm			
		COc1c(N2C[C@@H]3CCCN(C(C)=O)[C@@H]3C2)c(F)cc2c(=O)c(C(=O)O)cn(C3CC3)c12		0 mm	0 mm	0 mm	0 mm			
		CC(=O)NC1(c2c(F)cc3c(=O)c(C(=O)O)cn4c3c2OC[C@@H]4C)CC1		0 mm	0 mm	0 mm	0 mm			
		O=C(O)CCCN1CCN(c2cc3c(cc2F)c(=O)c(C(=O)O)cn3C2CC2)CC1		0 mm	0 mm	0 mm	0 mm			

SMILES	MIC (Pseudomonas aeruginosa [6])	MIC (Pseudomonas aeruginosa [7])	MBC (Pseudomonas aeruginosa [1])	zone of inhibition at 10 µM (Pseudomonas aeruginosa [2])	zone of inhibition at 10 µM (Pseudomonas aeruginosa [3])	zone of inhibition at 10 µM (Pseudomonas aeruginosa [4])	zone of inhibition at 10 µM (Pseudomonas aeruginosa [5])	MBC (Pseudomonas aeruginosa [8])	Activity (Pseudomonas aeruginosa [9])	Activity (Pseudomonas aeruginosa [10])
O=C([O-])c1cn(C2CC2)c2cc(N3CCNCC3)c(F)cc2c1=O.[K+]	1.56 µM	1.56 µM	6.25 µM	24 mm	30 mm	38 mm	26 mm	6.25 µM	20%	32%
